Reference: the supplement of paper PMC10307832

Columns and labels:
Assay in all cases: relative viability (nuclei count vs DMSO), 5 days (fraction); higher = more cells survive
201T = system: 201T
In short: (§1)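 After 5 days of treatment, lung cancer cells in 1536-well plates were fixed and stained in a single step (final 0.05% Triton X-100, 1% formaldehyde, 1 ug/ml Hoechst) and their nuclei counted on 4× images. Treatment had been applied by pin tool the day after seeding as one drug alone or as a fixed anchor-drug dose with five library-drug doses (not always all listed) in √10 steps. Relative viability is the nuclei count of treated wells divided by that of vehicle wells, and values are medians of duplicate plates.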

BEN = system: BEN
In short: as §1

EMC-BAC-2 = system: EMC-BAC-2
In short: as §1

HARA = system: HARA
In short: as §1

HCC-44 = system: HCC-44
In short: as §1

LCLC-103H = system: LCLC-103H
In short: as §1

LOU-NH91 = system: LOU-NH91
In short: as §1

NCI-H1395 = system: NCI-H1395
In short: as §1

NCI-H1993 = system: NCI-H1993
In short: as §1

NCI-H2023 = system: NCI-H2023
In short: as §1

NCI-H2087 = system: NCI-H2087
In short: as §1

NCI-H2126 = system: NCI-H2126
In short: as §1

NCI-H2347 = system: NCI-H2347
In short: as §1

NCI-H23 = system: NCI-H23
In short: as §1

NCI-H3122 = system: NCI-H3122
In short: as §1

NCI-H441 = system: NCI-H441
In short: as §1

NCI-H522 = system: NCI-H522
In short: as §1

NCI-H647 = system: NCI-H647
In short: as §1

NCI-H650 = system: NCI-H650
In short: as §1

NCI-H727 = system: NCI-H727
In short: as §1

NCI-H838 = system: NCI-H838
In short: as §1

## Cc1sc2c(c1C)C(c1ccc(Cl)cc1)=N[C@@H](CC(=O)OC(C)(C)C)c1nnc(C)n1-2 [JQ1] + CC(=O)c1c(C)c2cnc(Nc3ccc(N4CCNCC4)cn3)nc2n(C2CCCC2)c1=O [Palbociclib] (partner 0.5 µM)
201T; first compound 0.04 µM
  relative viability: 0.334
201T; first compound 0.4 µM
  relative viability: 0.298
201T; first compound 1.265 µM
  relative viability: 0.313
201T; first compound 4 µM
  relative viability: 0.268
BEN; first compound 0.04 µM
  relative viability: 0.435
BEN; first compound 0.1265 µM
  relative viability: 0.443
BEN; first compound 0.4 µM
  relative viability: 0.476
BEN; first compound 1.265 µM
  relative viability: 0.376
BEN; first compound 4 µM
  relative viability: 0.325
EMC-BAC-2; first compound 0.04 µM
  relative viability: 0.496
EMC-BAC-2; first compound 0.1265 µM
  relative viability: 0.441
EMC-BAC-2; first compound 0.4 µM
  relative viability: 0.421
EMC-BAC-2; first compound 1.265 µM
  relative viability: 0.332
EMC-BAC-2; first compound 4 µM
  relative viability: 0.315
HARA; first compound 0.04 µM
  relative viability: 0.224
HARA; first compound 0.1265 µM
  relative viability: 0.193
HARA; first compound 0.4 µM
  relative viability: 0.228
HARA; first compound 1.265 µM
  relative viability: 0.229
HARA; first compound 4 µM
  relative viability: 0.189
HCC-44; first compound 0.04 µM
  relative viability: 0.96
HCC-44; first compound 0.1265 µM
  relative viability: 0.942
HCC-44; first compound 0.4 µM
  relative viability: 1.11
HCC-44; first compound 1.265 µM
  relative viability: 0.978
HCC-44; first compound 4 µM
  relative viability: 0.728
LCLC-103H; first compound 0.04 µM
  relative viability: 0.46
LCLC-103H; first compound 0.1265 µM
  relative viability: 0.438
LCLC-103H; first compound 0.4 µM
  relative viability: 0.42
LCLC-103H; first compound 1.265 µM
  relative viability: 0.419
LCLC-103H; first compound 4 µM
  relative viability: 0.328
LOU-NH91; first compound 0.04 µM
  relative viability: 0.493
LOU-NH91; first compound 0.1265 µM
  relative viability: 0.474
LOU-NH91; first compound 0.4 µM
  relative viability: 0.491
LOU-NH91; first compound 1.265 µM
  relative viability: 0.394
LOU-NH91; first compound 4 µM
  relative viability: 0.446
NCI-H1395; first compound 0.04 µM
  relative viability: 0.591
NCI-H1395; first compound 0.1265 µM
  relative viability: 0.556
NCI-H1395; first compound 0.4 µM
  relative viability: 0.602
NCI-H1395; first compound 1.265 µM
  relative viability: 0.443
NCI-H1395; first compound 4 µM
  relative viability: 0.395
NCI-H1993; first compound 0.04 µM
  relative viability: 0.772
NCI-H1993; first compound 0.1265 µM
  relative viability: 0.734
NCI-H1993; first compound 0.4 µM
  relative viability: 0.613
NCI-H1993; first compound 1.265 µM
  relative viability: 0.613
NCI-H1993; first compound 4 µM
  relative viability: 0.714
NCI-H2023; first compound 0.04 µM
  relative viability: 0.338
NCI-H2023; first compound 0.1265 µM
  relative viability: 0.281
NCI-H2023; first compound 0.4 µM
  relative viability: 0.225
NCI-H2023; first compound 1.265 µM
  relative viability: 0.135
NCI-H2023; first compound 4 µM
  relative viability: 0.105
NCI-H2087; first compound 0.04 µM
  relative viability: 0.234
NCI-H2087; first compound 0.1265 µM
  relative viability: 0.214
NCI-H2087; first compound 0.4 µM
  relative viability: 0.153
NCI-H2087; first compound 1.265 µM
  relative viability: 0.157
NCI-H2087; first compound 4 µM
  relative viability: 0.163
NCI-H2126; first compound 0.04 µM
  relative viability: 0.345
NCI-H2126; first compound 0.1265 µM
  relative viability: 0.401
NCI-H2126; first compound 0.4 µM
  relative viability: 0.368
NCI-H2126; first compound 1.265 µM
  relative viability: 0.348
NCI-H2126; first compound 4 µM
  relative viability: 0.37
NCI-H2347; first compound 0.04 µM
  relative viability: 0.446
NCI-H2347; first compound 0.1265 µM
  relative viability: 0.393
NCI-H2347; first compound 0.4 µM
  relative viability: 0.385
NCI-H2347; first compound 1.265 µM
  relative viability: 0.327
NCI-H2347; first compound 4 µM
  relative viability: 0.32
NCI-H23; first compound 0.04 µM
  relative viability: 0.597
NCI-H23; first compound 0.1265 µM
  relative viability: 0.48
NCI-H23; first compound 0.4 µM
  relative viability: 0.275
NCI-H23; first compound 1.265 µM
  relative viability: 0.26
NCI-H23; first compound 4 µM
  relative viability: 0.215
NCI-H3122; first compound 0.04 µM
  relative viability: 0.22
NCI-H3122; first compound 0.1265 µM
  relative viability: 0.203
NCI-H3122; first compound 0.4 µM
  relative viability: 0.191
NCI-H3122; first compound 1.265 µM
  relative viability: 0.185
NCI-H3122; first compound 4 µM
  relative viability: 0.139
NCI-H441; first compound 0.04 µM
  relative viability: 0.19
NCI-H441; first compound 0.1265 µM
  relative viability: 0.206
NCI-H441; first compound 0.4 µM
  relative viability: 0.176
NCI-H441; first compound 1.265 µM
  relative viability: 0.137
NCI-H441; first compound 4 µM
  relative viability: 0.132
NCI-H522; first compound 0.04 µM
  relative viability: 1.04
NCI-H522; first compound 0.1265 µM
  relative viability: 0.881
NCI-H522; first compound 0.4 µM
  relative viability: 0.697
NCI-H522; first compound 1.265 µM
  relative viability: 0.478
NCI-H522; first compound 4 µM
  relative viability: 0.39
NCI-H647; first compound 0.04 µM
  relative viability: 0.372
NCI-H647; first compound 0.1265 µM
  relative viability: 0.231
NCI-H647; first compound 0.4 µM
  relative viability: 0.13
NCI-H647; first compound 1.265 µM
  relative viability: 0.113
NCI-H647; first compound 4 µM
  relative viability: 0.0792
NCI-H650; first compound 0.04 µM
  relative viability: 0.328
NCI-H650; first compound 0.1265 µM
  relative viability: 0.259
NCI-H650; first compound 0.4 µM
  relative viability: 0.228
NCI-H650; first compound 1.265 µM
  relative viability: 0.176
NCI-H650; first compound 4 µM
  relative viability: 0.164
NCI-H727; first compound 0.04 µM
  relative viability: 0.63
NCI-H727; first compound 0.1265 µM
  relative viability: 0.576
NCI-H727; first compound 0.4 µM
  relative viability: 0.61
NCI-H727; first compound 1.265 µM
  relative viability: 0.538
NCI-H727; first compound 4 µM
  relative viability: 0.581
NCI-H838; first compound 0.04 µM
  relative viability: 0.205
NCI-H838; first compound 0.1265 µM
  relative viability: 0.194
NCI-H838; first compound 0.4 µM
  relative viability: 0.167
NCI-H838; first compound 1.265 µM
  relative viability: 0.164
NCI-H838; first compound 4 µM
  relative viability: 0.162
